Earlier results in patent US7026301B2, “Method of orally treating inflammatory skin conditions with prodrugs of 5-fluorouracil” (New York University, priority 2002, dated 2006).

Assays:
[1] = biological target: T1, dihydropyrimidine dehydrogenase (DPD) (Homo sapiens, UniProt Q12882)
T1 construct: host or cells: endogenous enzyme of patients (in vivo)
T1 sequence (Q12882 4-1025): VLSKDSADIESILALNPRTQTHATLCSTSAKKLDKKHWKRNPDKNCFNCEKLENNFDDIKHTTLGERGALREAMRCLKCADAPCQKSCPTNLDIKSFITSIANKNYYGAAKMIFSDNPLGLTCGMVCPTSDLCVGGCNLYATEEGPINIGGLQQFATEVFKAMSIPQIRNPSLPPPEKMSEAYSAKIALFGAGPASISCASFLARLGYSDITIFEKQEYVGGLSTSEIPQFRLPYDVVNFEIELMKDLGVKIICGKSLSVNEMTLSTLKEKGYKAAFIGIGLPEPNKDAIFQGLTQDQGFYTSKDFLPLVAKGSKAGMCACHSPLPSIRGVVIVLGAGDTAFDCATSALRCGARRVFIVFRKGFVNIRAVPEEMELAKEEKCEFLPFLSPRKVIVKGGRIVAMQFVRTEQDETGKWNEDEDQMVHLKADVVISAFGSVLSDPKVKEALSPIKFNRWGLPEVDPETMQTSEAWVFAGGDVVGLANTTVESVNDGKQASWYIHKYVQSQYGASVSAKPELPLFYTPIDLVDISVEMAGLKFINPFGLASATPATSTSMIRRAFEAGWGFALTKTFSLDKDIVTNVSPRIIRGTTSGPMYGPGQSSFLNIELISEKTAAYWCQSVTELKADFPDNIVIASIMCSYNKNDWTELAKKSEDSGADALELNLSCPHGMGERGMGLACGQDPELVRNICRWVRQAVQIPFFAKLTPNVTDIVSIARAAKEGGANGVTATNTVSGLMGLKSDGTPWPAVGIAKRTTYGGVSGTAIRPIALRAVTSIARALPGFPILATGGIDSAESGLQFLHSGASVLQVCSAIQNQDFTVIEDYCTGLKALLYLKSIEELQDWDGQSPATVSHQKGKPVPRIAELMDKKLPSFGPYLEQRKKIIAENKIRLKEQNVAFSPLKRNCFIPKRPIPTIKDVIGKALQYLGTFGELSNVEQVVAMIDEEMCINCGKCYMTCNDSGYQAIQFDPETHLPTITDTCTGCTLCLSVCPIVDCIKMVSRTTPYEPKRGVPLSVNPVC

[2] = treated patients; for patients in whom hand-foot syndrome occurred: any grade
[3] = humans

Compound	share of the injected dose deactivated by DPD [1]	patients in whom hand-foot syndrome occurred [2]	patients with the most severe form (grade 3) of hand-foot syndrome [2]	oral absorption [3]
O=c1[nH]cc(F)c(=O)[nH]1 [5-FU, 5-fluorouracil]	more than 85%			
5-FU/leucovorin		6%	1%	
CCCCCOC(=O)Nc1nc(=O)n([C@@H]2O[C@H](C)[C@@H](O)[C@H]2O)cc1F [capecitabine, N^4-pentyloxycarbonyl-5′-deoxy-5-fuorocytidine]		53%	17%	rapidly and almost completely absorbed
